Where two headings read alike, the source gives them in different places.
Assay: Single ascending oral dose study in healthy volunteers: plasma pharmacokinetics
Assay type: in vivo, human
Conditions: human, plasma, oral; for concentration at 48 h: 48 Hours Postdose; for concentration at 72 h: 72 Hours Postdose; for concentration at 6 h: 6 Hours Postdose; for concentration at 12 h: 12 Hours Postdose; for concentration at 24 h: 24 Hours Postdose
Source text: This example describes the first-in-human study of Compound I. Based on its mechanism of action, Compound I may offer a targeted therapy for patients with DCM caused by genetic or nongenetic mechanisms. The study was a randomized, double-blind, placebo-controlled, sequential group, single-ascending (oral) close study in healthy subjects aged 18-55 years. Eight dosing cohorts, each comprising eight healthy subjects, were enrolled. Within each cohort, subjects were randomized 6:2 to Compound I:placebo.
Subjects were resident at the clinical site for up to 5 days and 4 nights, from Day −1 (the day before dosing) to Day 4, and received a single dose of Compound I or placebo on Day 1. ECG telemetry was initiated 1 hour preclose and continued through 48 hours postclose (Day 3). Any subject with a preclose resting HR≥80 beats per minute was considered ineligible and not treated. […] Subjects returned for a safety follow-up visit 7 days (±1 day) after dosing.
All randomized study subjects received either Compound I or matching placebo as a single oral dose after a fasting period of at least 6 hours. Compound I drug substance is a crystalline, free-base, synthetic molecule with a molecular weight of 435.4 g/mol.
Compound I was provided as a powder for oral suspension. Placebo was provided as calcium carbonate powder. Both treatments were closed orally as a suspension. The suspension was made using Ora-Plus® suspending vehicle (Perrigo) and a cherry syrup flavoring vehicle (Humco), mixed 50% to 50%. The suspension was followed by approximately 100 mL water. The suspension was made up within 14 days from the time in which it was closed which was consistent with the stability data on the suspension. The suspension was made up so the volume administered to the subjects who received Compound I was the same at 20 mL.
Each subject received a close according to the cohort in which they were enrolled. Cohorts were enrolled sequentially, with each cohort receiving an escalated dose of Compound I. The closes administered were 3 mg, 10 mg, 25 mg, 50 mg, 100 mg, 175 mg, 350 mg, and 525 mg, respectively.
The concentrations of Compound I in human plasma and urine were quantitated by high performance liquid chromatography with tandem mass spectrometric detection (LC MS/MS) (Biological sample analysis study report Alturas AD17-726). Plasma samples were extracted by protein precipitation with acetonitrile containing internal standard MYK-5654. The calibration curves were linear over concentration range of 0.500 to 1000 ng/mL with a lower limit of quantification (LLOQ) of 0.500 ng/mL.
The PK Population included all subjects who received Compound I. Blood samples were collected for PK assessments. The actual timing of the samples may have been modified and/or up to an additional 2 samples may have been requested by the SRC after review of the data from previous cohorts. It was important that PK sampling occurred as closely as possible to the scheduled time (±10%). Both blood and urine samples were used for PK assessments.
In addition, for subjects who received placebo, a single plasma sample near the predicted tmax of Compound I was evaluated to confirm the lack of circulating Compound I. Plasma concentration data for Compound I was summarized using descriptive statistics, including mean, standard deviation (SD), median, minimum, and maximum values, and percent coefficient of variation. Other PK parameters included (but were not limited to) Cmax, tmax, AUC, t1/2, and MRT. Additionally, the apparent terminal-phase terminal half-life was calculated. The close proportionality of AUC and Cmax was explored.

[1] = 10 mg, 10 mg, read-out: Plasma concentration, Median
[2] = 25 mg, 25 mg, read-out: Plasma concentration, Geometric Mean
[3] = 25 mg, 25 mg, read-out: Plasma concentration, Mean
[4] = 25 mg, 25 mg, read-out: Plasma concentration, Median
[5] = 50 mg, 50 mg, read-out: Plasma concentration, Geometric Mean
[6] = 50 mg, 50 mg, read-out: Plasma concentration, Mean
[7] = 50 mg, 50 mg, read-out: Plasma concentration, Median

Compound: Cn1cc(S(=O)(=O)[C@@](C)(F)C2CCN(C(=O)Nc3ccon3)CC2)c(C(F)F)n1 [Compound I, (R)-4-(1-((3-(difluoromethyl)-1-methyl-1H-pyrazol-4-yl)sulfonyl)-1-fluoroethyl)-N-(isoxazol-3-yl)piperidine-1-carboxamide]
- concentration at 48 h [1]: 15.4 ng/mL
- concentration at 72 h (10 mg, 10 mg, read-out: Plasma concentration, Geometric Mean): 4.5 ng/mL
- concentration at 72 h (10 mg, 10 mg, read-out: Plasma concentration, Mean): 4.93 ng/mL
- concentration at 72 h [1]: 4.01 ng/mL
- AUC(0-t) (10 mg, read-out: AUC0-24, Geometric Mean): 2120 ng·h/mL
- AUC(0-t) (10 mg, read-out: AUC0-24, Mean): 2140 ng·h/mL
- AUC(0-t) (10 mg, read-out: AUC0-24, Median): 2250 ng·h/mL
- AUC(0-t) (10 mg, read-out: AUC0-48, Geometric Mean): 2980 ng·h/mL
- AUC(0-t) (10 mg, read-out: AUC0-48, Mean): 3030 ng·h/mL
- AUC(0-t) (10 mg, read-out: AUC0-48, Median): 3190 ng·h/mL
- AUC(0-t) (10 mg, read-out: AUC0-last, Geometric Mean): 3280 ng·h/mL
- AUC(0-t) (10 mg, read-out: AUC0-last, Mean): 3350 ng·h/mL
- AUC(0-t) (10 mg, read-out: AUC0-last, Median): 3420 ng·h/mL
- AUC(0-inf) (10 mg, read-out: AUC0-∞, Geometric Mean): 3350 ng·h/mL
- AUC(0-inf) (10 mg, read-out: AUC0-∞, Mean): 3410 ng·h/mL
- AUC(0-inf) (10 mg, read-out: AUC0-∞, Median): 3480 ng·h/mL
- Cmax (10 mg, read-out: Cmax, Geometric Mean): 138 ng/mL
- Cmax (10 mg, read-out: Cmax, Mean): 139 ng/mL
- Cmax (10 mg, read-out: Cmax, Median): 146 ng/mL
- half-life (10 mg, read-out: Half-Life Lambda Z, Geometric Mean (converted)): 13.2 h
- half-life (10 mg, read-out: Half-Life Lambda Z, Mean (converted)): 13.4 h
- half-life (10 mg, read-out: Half-Life Lambda Z, Median (converted)): 12.9 h
- MRT (10 mg, read-out: Mean Residence Time, Geometric Mean): 21.1 h
- MRT (10 mg, read-out: Mean Residence Time, Mean): 21.2 h
- MRT (10 mg, read-out: Mean Residence Time, Median): 20.1 h
- Tmax (10 mg, read-out: Tmax, Geometric Mean): 4.8 h
- Tmax (10 mg, read-out: Tmax, Mean): 4.85 h
- Tmax (10 mg, read-out: Tmax, Median): 5 h
- Vd/F (10 mg, read-out: Vz/F, Geometric Mean): 57.1 L
- Vd/F (10 mg, read-out: Vz/F, Mean): 58.5 L
- Vd/F (10 mg, read-out: Vz/F, Median): 55.8 L
- concentration at 6 h [2]: 281 ng/mL
- concentration at 6 h [3]: 286 ng/mL
- concentration at 6 h [4]: 286 ng/mL
- concentration at 12 h [2]: 205 ng/mL
- concentration at 12 h [3]: 211 ng/mL
- concentration at 12 h [4]: 223 ng/mL
- concentration at 24 h [2]: 114 ng/mL
- concentration at 24 h [3]: 118 ng/mL
- concentration at 24 h [4]: 124 ng/mL
- concentration at 48 h [2]: 33.3 ng/mL
- concentration at 48 h [3]: 35.8 ng/mL
- concentration at 48 h [4]: 35.5 ng/mL
- concentration at 72 h [2]: 8.4 ng/mL
- concentration at 72 h [3]: 9.78 ng/mL
- concentration at 72 h [4]: 8.51 ng/mL
- AUC(0-t) (25 mg, read-out: AUC0-24, Geometric Mean): 4550 ng·h/mL
- AUC(0-t) (25 mg, read-out: AUC0-24, Mean): 4650 ng·h/mL
- AUC(0-t) (25 mg, read-out: AUC0-24, Median): 4850 ng·h/mL
- AUC(0-t) (25 mg, read-out: AUC0-48, Geometric Mean): 6320 ng·h/mL
- AUC(0-t) (25 mg, read-out: AUC0-48, Mean): 6500 ng·h/mL
- AUC(0-t) (25 mg, read-out: AUC0-48, Median): 6890 ng·h/mL
- AUC(0-t) (25 mg, read-out: AUC0-last, Geometric Mean): 6920 ng·h/mL
- AUC(0-t) (25 mg, read-out: AUC0-last, Mean): 7160 ng·h/mL
- AUC(0-t) (25 mg, read-out: AUC0-last, Median): 7420 ng·h/mL
- AUC(0-inf) (25 mg, read-out: AUC0-∞, Geometric Mean): 7050 ng·h/mL
- AUC(0-inf) (25 mg, read-out: AUC0-∞, Mean): 7290 ng·h/mL
- AUC(0-inf) (25 mg, read-out: AUC0-∞, Median): 7570 ng·h/mL
- Cmax (25 mg, read-out: Cmax, Geometric Mean): 298 ng/mL
- Cmax (25 mg, read-out: Cmax, Mean): 304 ng/mL
- Cmax (25 mg, read-out: Cmax, Median): 313 ng/mL
- half-life (25 mg, read-out: Half-Life Lambda Z, Geometric Mean (converted)): 13.1 h
- half-life (25 mg, read-out: Half-Life Lambda Z, Mean (converted)): 13.3 h
- half-life (25 mg, read-out: Half-Life Lambda Z, Median (converted)): 12.7 h
- MRT (25 mg, read-out: Mean Residence Time, Geometric Mean): 20.6 h
- MRT (25 mg, read-out: Mean Residence Time, Mean): 20.8 h
- MRT (25 mg, read-out: Mean Residence Time, Median): 20.1 h
- Tmax (25 mg, read-out: Tmax, Geometric Mean): 4.64 h
- Tmax (25 mg, read-out: Tmax, Mean): 4.67 h
- Tmax (25 mg, read-out: Tmax, Median): 5 h
- Vd/F (25 mg, read-out: Vz/F, Geometric Mean): 67.3 L
- Vd/F (25 mg, read-out: Vz/F, Mean): 68.6 L
- Vd/F (25 mg, read-out: Vz/F, Median): 66.5 L
- concentration at 6 h [5]: 424 ng/mL
- concentration at 6 h [6]: 431 ng/mL
- concentration at 6 h [7]: 420 ng/mL
- concentration at 12 h [5]: 317 ng/mL
- concentration at 12 h [6]: 322 ng/mL
- concentration at 12 h [7]: 297 ng/mL
- concentration at 24 h [5]: 175 ng/mL
- concentration at 24 h [6]: 178 ng/mL
- concentration at 24 h [7]: 174 ng/mL
- concentration at 48 h [5]: 49.5 ng/mL
- concentration at 48 h [6]: 51.9 ng/mL
- concentration at 48 h [7]: 57.4 ng/mL
- concentration at 72 h [5]: 13.5 ng/mL
- concentration at 72 h [6]: 15.2 ng/mL
- concentration at 72 h [7]: 18.8 ng/mL
- AUC(0-t) (50 mg, read-out: AUC0-24, Geometric Mean): 7210 ng·h/mL
- AUC(0-t) (50 mg, read-out: AUC0-24, Mean): 7300 ng·h/mL
- AUC(0-t) (50 mg, read-out: AUC0-24, Median): 6730 ng·h/mL
- AUC(0-t) (50 mg, read-out: AUC0-48, Geometric Mean): 9930 ng·h/mL
- AUC(0-t) (50 mg, read-out: AUC0-48, Mean): 10100 ng·h/mL
- AUC(0-t) (50 mg, read-out: AUC0-48, Median): 9500 ng·h/mL
- AUC(0-t) (50 mg, read-out: AUC0-last, Geometric Mean): 11100 ng·h/mL
- AUC(0-t) (50 mg, read-out: AUC0-last, Mean): 11200 ng·h/mL
- AUC(0-t) (50 mg, read-out: AUC0-last, Median): 11200 ng·h/mL
- AUC(0-inf) (50 mg, read-out: AUC0-∞, Geometric Mean): 11200 ng·h/mL
- AUC(0-inf) (50 mg, read-out: AUC0-∞, Mean): 11300 ng·h/mL
- AUC(0-inf) (50 mg, read-out: AUC0-∞, Median): 11200 ng·h/mL
- Cmax (50 mg, read-out: Cmax, Geometric Mean): 490 ng/mL
- Cmax (50 mg, read-out: Cmax, Mean): 500 ng/mL
- Cmax (50 mg, read-out: Cmax, Median): 470 ng/mL
- half-life (50 mg, read-out: Half-Life Lambda Z, Geometric Mean (converted)): 13.4 h
- half-life (50 mg, read-out: Half-Life Lambda Z, Mean (converted)): 13.6 h
- half-life (50 mg, read-out: Half-Life Lambda Z, Median (converted)): 13.8 h
- MRT (50 mg, read-out: Mean Residence Time, Geometric Mean): 20.8 h
- MRT (50 mg, read-out: Mean Residence Time, Mean): 21 h
- MRT (50 mg, read-out: Mean Residence Time, Median): 21.5 h
- Tmax (50 mg, read-out: Tmax, Geometric Mean): 4.66 h
- Tmax (50 mg, read-out: Tmax, Mean): 4.69 h
- Tmax (50 mg, read-out: Tmax, Median): 5 h
- Vd/F (50 mg, read-out: Vz/F, Geometric Mean): 86.6 L

— patent US20220265629A1, “TREATMENT OF SYSTOLIC DYSFUNCTION AND HEART FAILURE WITH REDUCED EJECTION FRACTION WITH THE COMPOUND (R)-4-(1-((3-(DIFLUOROMETHYL)-1-METHYL-1H-PYRAZOL-4-YL)SULFONYL)-1-FLUOROETHYL)-N-(ISOXAZOL-3-YL)PIPERIDINE-1-CARBOXAMIDE” (MyoKardia, Inc., priority 2019, published 2022)
